Experimental data published in patent publication US7173004B2, “Macrocyclic isoquinoline peptide inhibitors of hepatitis C virus” (Bristol-Myers Squibb Company, priority 2003, dated 2007).

System: HCV replicon (HCV 1b-377-neo replicon cells, Huh7)
Assay: HCV replicon cell-based FRET assay
Details: Hepatitis C virus, Huh-7
Method in brief: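 Huh7 cells carrying a neo-selectable genotype 1b HCV replicon (~3,000 RNA copies/cell) were seeded at 1.5×10^4 cells/well and treated 4 days at 37 °C (0.5% DMSO final). CC50 was read by alamar Blue (4 h, ex 530/em 580 nm). Lysates with 10 μM EDANS/DABCYL NS3 protease FRET peptide were read kinetically (ex 340/em 490 nm, 25 °C, ~15 min) for % inhibition.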

Structure (SMILES)	EC50 [nM]
COc1ccc2c(OC3CC4C(=O)NC5(C(=O)NS(=O)(=O)C6CC6)CC5C=CCCCOCC(NC(=O)NC5CCCC5)C(=O)N4C3)nccc2c1 (centres unmarked) [Compound 87]	< 50
COc1ccc2c(OC3CC4C(=O)NC5(C(=O)NS(=O)(=O)C6CC6)CC5C=CCCCOCC(NC(=O)NC(C)(C)C)C(=O)N4C3)nc(-c3ccc(N(C)C)cc3)cc2c1 (centres unmarked) [Compound 108]	< 50
COc1ccc2c(OC3CC4C(=O)NC5(C(=O)NS(=O)(=O)C6CC6)CC5C=CCCCOCC(NC(=O)OCC(C)(C)C)C(=O)N4C3)nccc2c1 (centres unmarked) [Compound 88]	< 50
COc1ccc2c(OC3CC4C(=O)NC5(C(=O)NS(=O)(=O)C6CC6)CC5C=CCCCOCC(NC(=O)OC5CCCC5)C(=O)N4C3)nccc2c1 (centres unmarked) [Compound 90]	< 50
COc1ccc2c(OC3CC4C(=O)NC5(C(=O)NS(=O)(=O)C6CC6)CC5C=CCOCCCC(NC(=S)NC5CC5)C(=O)N4C3)nc(-c3ccccc3)cc2c1 (centres unmarked) [Compound 104]	50 to 500
CC(C)(C)OC(=O)N[C@H]1CN(S(C)(=O)=O)CCC/C=C\[C@@H]2C[C@@]2(C(=O)NS(=O)(=O)C2CC2)NC(=O)[C@@H]2C[C@@H](Oc3nccc4ccccc34)CN2C1=O [Compound 153]	50 to 500
COc1ccc2c(OC3CC4C(=O)NC5(C(=O)NS(=O)(=O)C6CC6)CC5C=CCOCCCC(NC(=O)N5CCCC5)C(=O)N4C3)nc(-c3ccccc3)cc2c1 (centres unmarked) [Compound 100]	< 50
CC(C)(C)OC(=O)NC1CN(C(=O)C2CC2)CCCC=CC2CC2(C(=O)NS(=O)(=O)C2CC2)NC(=O)C2CC(Oc3nccc4ccccc34)CN2C1=O (centres unmarked) [Compound 152]	50 to 500
COc1ccc2c(OC3CC4C(=O)NC5(C(=O)NS(=O)(=O)C6CC6)CC5C=CCOCCCC(NC(=O)OC(C)C)C(=O)N4C3)nc(-c3ccccc3)cc2c1 (centres unmarked) [Compound 98]	< 50
COc1ccc2c(O[C@@H]3C[C@H]4C(=O)N[C@]5(C(=O)NS(=O)(=O)C6CC6)C[C@H]5/C=C\CCCSC(C)(C)[C@H](NC(=O)OC(C)(C)C)C(=O)N4C3)nccc2c1 [Compound 80, (1S,4R,6S,14R,18R)-[7-cis-4-Cyclopropanesulfonylaminocarbonyl-13,13-dimethyl-18-(6-methoxyisoquinolin-1-yloxy)-2,15-dioxo-12-thia-3,16-diaza-tricyclo[14.3.0.0^4,6]nonadec-7-en-14-yl]carbamic acid, tert-butyl ester]	50 to 500
COc1ccc2c(OC3CC4C(=O)NC5(C(=O)NS(=O)(=O)C6CC6)CC5C=CCCCOCC(NC(=O)OC5CCCC5)C(=O)N4C3)nc(-c3ccc(N(C)C)cc3)cc2c1 (centres unmarked) [Compound 110]	< 50
COc1ccc2c(OC3CC4C(=O)NC5(C(=O)NS(=O)(=O)C6CC6)CC5C=CCCCOCC(NC(=O)N5CCCC5)C(=O)N4C3)nc(-c3ccc(N(C)C)cc3)cc2c1 (centres unmarked) [Compound 111]	< 50
COc1ccc2c(OC3CC4C(=O)NC5(C(=O)NS(=O)(=O)C6CC6)CC5C=CCCCOCC(NC(=O)OC(C)C)C(=O)N4C3)nc(-c3ccccc3)cc2c1 (centres unmarked) [Compound 96]	< 50
COc1ccc2c(OC3CC4C(=O)NC5(C(=O)NS(=O)(=O)C6CC6)CC5C=CCOCCCC(NC(=O)NC(C)(C)C)C(=O)N4C3)nc(-c3ccccc3)cc2c1 (centres unmarked) [Compound 102]	< 50
CC(C)(C)CC(C)(C)NC(=O)NC1CCCCCC=CC2CC2(C(=O)NS(=O)(=O)C2CC2)NC(=O)C2CC(Oc3nccc4ccccc34)CN2C1=O (centres unmarked) [Compound 129]	< 50
COc1ccc2c(OC3CC4C(=O)NC5(C(=O)NS(=O)(=O)C6(C)CC6)CC5C=CCCCSCC(NC(=O)OC(C)(C)C)C(=O)N4C3)nccc2c1 (centres unmarked) [Compound 115]	< 50
COc1ccc2c(OC3CC4C(=O)NC5(C(=O)NS(=O)(=O)C6CC6)CC5C=CCCCCCC(NC(=O)NC(C)(C)C)C(=O)N4C3)nccc2c1 (centres unmarked) [Compound 135]	< 50
CC(C)(C)OC(=O)N[C@H]1CN(S(=O)(=O)c2ccccc2[N+](=O)[O-])CCC/C=C\[C@@H]2C[C@@]2(C(=O)NS(=O)(=O)C2CC2)NC(=O)[C@@H]2C[C@@H](Oc3nccc4ccccc34)CN2C1=O [Compound 145]	50 to 500
CC(C)(C)OC(=O)NC1CCCCCC=CC2CC2(C(=O)NS(=O)(=O)C2CC2)NC(=O)C2CC(Oc3nccc4c(Cl)cccc34)CN2C1=O (centres unmarked) [Compound 130]	< 50
CC(C)(C)COC(=O)N1CCCC=CC2CC2(C(=O)NS(=O)(=O)C2CC2)NC(=O)C2CC(Oc3nccc4ccccc34)CN2C(=O)C(NC(=O)OC(C)(C)C)C1 (centres unmarked) [Compound 149]	50 to 500
COc1ccc2c(OC3CC4C(=O)NC5(C(=O)NS(=O)(=O)C6CC6)CC5C=CCCCCCC(NC(=O)OC(C)(C)C)C(=O)N4C3)nccc2c1F (centres unmarked) [Compound 132]	< 50
COc1ccc2c(OC3CC4C(=O)NC5(C(=O)NS(=O)(=O)C6CC6)CC5C=CCCCOCC(NC(=O)N5CCCC5)C(=O)N4C3)nc(-c3ccccc3)cc2c1 (centres unmarked) [Compound 93]	< 50
CC(C)(C)NC(=O)N1CCC/C=C\[C@@H]2C[C@@]2(C(=O)NS(=O)(=O)C2CC2)NC(=O)[C@@H]2C[C@@H](Oc3nccc4ccccc34)CN2C(=O)[C@@H](NC(=O)OC(C)(C)C)C1 [Compound 150]	50 to 500
O=C(NC1CCCC1)NC1CCCCCC=CC2CC2(C(=O)NS(=O)(=O)C2CC2)NC(=O)C2CC(Oc3nccc4ccccc34)CN2C1=O (centres unmarked) [Compound 127]	< 50

Structure (SMILES)	EC50 [nM]
COc1ccc2c(OC3CC4C(=O)NC5(C(=O)NS(=O)(=O)C6CC6)CC5C=CCCCOCC(NC(=O)NC(C)(C)C)C(=O)N4C3)nccc2c1 (centres unmarked) [Compound 86]	< 50
CC(C)(C)NC(=O)N[C@H]1CCCCC/C=C\[C@@H]2C[C@@]2(C(=O)NS(=O)(=O)C2CC2)NC(=O)[C@@H]2C[C@@H](Oc3nccc4ccccc34)CN2C1=O [Compound 126]	< 50
COc1ccc2c(OC3CC4C(=O)NC5(C(=O)NS(=O)(=O)C6CC6)CC5C=CCCCOCC(NC(=O)NC(C)(C)C)C(=O)N4C3)nc(-c3ccccc3)cc2c1 (centres unmarked) [Compound 92]	< 50
COc1ccc2c(OC3CC4C(=O)NC5(C(=O)NS(=O)(=O)C6CC6)CC5C=CCOCCCC(NC(=O)OC5CCCC5)C(=O)N4C3)nc(-c3ccccc3)cc2c1 (centres unmarked) [Compound 99]	< 50
CC(=O)C(C)(C)OC(=O)NC1CCCCCC=CC2CC2(C(=O)NS(=O)(=O)C2CC2)NC(=O)C2CC(Oc3nccc4ccccc34)CN2C1=O (centres unmarked) [Compound 123]	50 to 500
CC(=O)N1CCC/C=C\[C@@H]2C[C@@]2(C(=O)NS(=O)(=O)C2CC2)NC(=O)[C@@H]2C[C@@H](Oc3nccc4ccccc34)CN2C(=O)[C@@H](NC(=O)OC(C)(C)C)C1 [Compound 146]	500 to 5000
COc1ccc2c(OC3CC4C(=O)NC5(C(=O)NS(=O)(=O)C6CC6)CC5C=CCCCSC(C)(C)C(NC(=O)NC5CCCC5)C(=O)N4C3)nccc2c1 (centres unmarked) [Compound 82]	50 to 500
COc1ccc2c(OC3CC4C(=O)NC5(C(=O)NS(=O)(=O)C6CC6)CC5C=CCCCCCC(NC(=O)NC5CCCC5)C(=O)N4C3)nccc2c1 (centres unmarked) [Compound 136]	< 50
COc1ccc2c(OC3CC4C(=O)NC5(C(=O)NS(=O)(=O)C6CC6)CC5C=CCCCOCC(NC(=O)OC(C)C)C(=O)N4C3)nccc2c1 (centres unmarked) [Compound 89]	< 50
COc1ccc2c(OC3CC4C(=O)NC5(C(=O)NS(=O)(=O)C6CC6)CC5C=CCOCCCC(NC(=O)N5CCNC5=O)C(=O)N4C3)nc(-c3ccccc3)cc2c1 (centres unmarked) [Compound 106]	500 to 5000
COc1ccc2c(OC3CC4C(=O)NC5(C(=O)NS(=O)(=O)C6CC6)CC5C=CCCCSC(C)(C)C(NC(=O)NC(C)(C)C)C(=O)N4C3)nccc2c1 (centres unmarked) [Compound 81]	50 to 500
CNc1ccc(-c2cc3cc(OC)ccc3c(OC3CC4C(=O)NC5(C(=O)NS(=O)(=O)C6CC6)CC5C=CCOCCCC(NC(=O)OC(C)(C)C)C(=O)N4C3)n2)cc1 (centres unmarked) [Compound 113]	< 50
COc1ccc2c(OC3CC4C(=O)NC5(C(=O)NS(=O)(=O)C6CC6)CC5C=CCCCSC(C)(C)C(N)C(=O)N4C3)nccc2c1 (centres unmarked) [Compound 83]	5000 to 50000
COc1ccc2c(OC3CC4C(=O)NC5(C(=O)NS(=O)(=O)C6CC6)CC5C=CCCCSCC(N)C(=O)N4C3)nccc2c1 (centres unmarked) [Compound 117]	50 to 500
COc1ccc2c(OC3CC4C(=O)NC5(C(=O)NS(=O)(=O)C6CC6)CC5C=CCOCCCC(NC(=O)Nc5ccc(C#N)cc5)C(=O)N4C3)nc(-c3ccccc3)cc2c1 (centres unmarked) [Compound 105]	50 to 500
COC(=O)N1CCC/C=C\[C@@H]2C[C@@]2(C(=O)NS(=O)(=O)C2CC2)NC(=O)[C@@H]2C[C@@H](Oc3nccc4ccccc34)CN2C(=O)[C@@H](NC(=O)OC(C)(C)C)C1 [Compound 148]	50 to 500
CCSC(=O)NC1CCCCCC=CC2CC2(C(=O)NS(=O)(=O)C2CC2)NC(=O)C2CC(Oc3nccc4ccccc34)CN2C1=O (centres unmarked) [Compound 118]	< 50
CC1(COC(=O)NC2CCCCCC=CC3CC3(C(=O)NS(=O)(=O)C3CC3)NC(=O)C3CC(Oc4nccc5ccccc45)CN3C2=O)CC1 (centres unmarked) [Compound 122]	< 50
CCC(C)(C)OC(=O)NC1CCCCCC=CC2CC2(C(=O)NS(=O)(=O)C2CC2)NC(=O)C2CC(Oc3nccc4ccccc34)CN2C1=O (centres unmarked) [Compound 125]	< 50
CC(C)(OC(=O)NC1CCCCCC=CC2CC2(C(=O)NS(=O)(=O)C2CC2)NC(=O)C2CC(Oc3nccc4ccccc34)CN2C1=O)C(Cl)(Cl)Cl (centres unmarked) [Compound 124]	< 50
O=CNC1CCCCCC=CC2CC2(C(=O)NS(=O)(=O)C2CC2)NC(=O)C2CC(Oc3nccc4ccccc34)CN2C1=O (centres unmarked) [Compound 119]	50 to 500
CC(C)NC(=O)NC1CCCCCC=CC2CC2(C(=O)NS(=O)(=O)C2CC2)NC(=O)C2CC(Oc3nccc4ccccc34)CN2C1=O (centres unmarked) [Compound 128]	< 50
COc1ccc2c(OC3CC4C(=O)NC5(C(=O)NS(=O)(=O)C6CC6)CC5C=CCOCCCC(NC(=O)OC(C)(C)C)C(=O)N4C3)nc(-c3ccc(N(C)C=O)cc3)cc2c1 (centres unmarked) [Compound 114]	< 50
